What was measured:
PKC-βI = PKC-βI (Homo sapiens, UniProt P05771); experiment: In vitro competition with anti-PKC-βI antibody, Protocol B, IMR-32 cells; format: binding; parameters: PRE 3 and PRE 4 in IMR-32 Neuroblastoma Cells: Protocol B; endogenous in cells; host or cells: IMR-32; settings: for Band Intensity: control band intensity 170.5, Table 9
Method: The ability of the peptides PRE 2 and PRE 3 (see Table 3) to interfere with the binding of a PKC-α-specific polyclonal antibody (Santa Cruz Biotechnology, Inc.) to PKC-α was determined using a modified version of the protocol outlined above in which the test peptide was added directly to the cell extract prior to electrophoresis at a concentration of either 5× or 15× the concentration of the protein applied to each well of the gel for the Western blots (20 μg).
(§1) Peptides PRE 3 and PRE 4 (see Table 3) were tested for their ability to interfere with the binding of isoform-specific polyclonal antibodies (Santa Cruz Biotechnology, Inc.) to PKC-α, PKC-βI or PKC-βII using the general protocol described in Example 3.

PKC-βII = PKC-βII (Homo sapiens, UniProt P05771); experiment: In vitro competition with anti-PKC-βII antibody, Protocol B, IMR-32 cells; format: binding; parameters: PRE 3 and PRE 4 in IMR-32 Neuroblastoma Cells: Protocol B; endogenous in cells; host or cells: IMR-32; settings: for Band Intensity: control band intensity 98.6, Table 9
Method: as §1

PKC-α [1] = target: T1, PKC-α (Homo sapiens, UniProt P17252); experiment: In vitro competition with anti-PKC-α antibody, Protocol B (peptide added to cell extract before electrophoresis), IMR-32 cells; format: binding; parameters: subcellular localisation of endogenous PKC-α in IMR-32 cells; endogenous in cells; host or cells: IMR-32; settings: PKC-α; for Band Intensity: control band intensity 302.5, Table 9
Method: as §1

PKC-β = experiment: In vitro competition with anti-PKC-β antibody, Protocol A, IMR-32 cells; format: binding, human; settings: for Band Intensity / Inhibition (%) / Relative Intensity (%): PKC-β, IMR-32, Table 6
Method: (§2) Cell lysates from either IMR-32 (human neuroblastoma) cells or C6Cx43 cells (rat glioma transfected cells overexpressing connexin 43) were obtained using standard protocols and the proteins of the lysate were separated by SDS PAGE electrophoresis and electrotransferred onto a nitrocellulose membrane. The membrane was incubated for 30 minutes in blocking buffer (TBST) containing the test peptide at either 5× or 20× the concentrations of the primary antibody. A primary polyclonal antibody specific for PKC-α (Santa Cruz Biotechnology, Inc., CA) was then added (15 μg/ml) and the membrane incubated for a further 45 minutes. Finally, the primary antibody was detected with a secondary antibody conjugated to alkaline phosphatase using standard procedures. The intensity of the band corresponding to PKC-α was assessed by scanning and densitometry using the Gel-Pro software (Media Cybernetics) to obtain relative band intensities (average of 3 replicas). Control assays were conducted as described above except that blocking buffer without peptide was used.
Peptides PRE 1, PRE 2 and PRE 3 (see Table 3) were tested for their ability to interfere with the binding of a PKC-β-specific polyclonal antibody (Santa Cruz Biotechnology, Inc.) to PKC-β using the general protocol described in Example 1. […] It is worth noting in this regard that PKC-α and PKC-β belong to the same sub-group of PKCs (cPKCs).

PKC-α [2] = target: T1, PKC-α; experiment: In vitro competition with anti-PKC-α antibody on blotted cell lysate, Protocol A, IMR-32 cells; format: binding; parameters: subcellular localisation of endogenous PKC-α in IMR-32 cells; endogenous in cells; host or cells: IMR-32; settings: Protocol A; for Band Intensity / Inhibition (%) / Relative Intensity (%): IMR-32, Table 4
Method: The ability of the peptides to interfere with the binding of a PKC-α-specific monoclonal antibody to PKC-α was determined using the following protocol.
as §2, with “The membrane was incubated for 30 minutes in blocking buffer (TBST) containing the test peptide at either 5× or 20× the concentrations of the primary antibody.” left out
The results are expressed as relative band intensity and as a percentage of the intensity of the corresponding band in the control assay (“Relative intensity (%)”). “% inhibition” relates to the percentage of the PKC-α band that is inaccessible to the antibody.

Sequence of PKC-βI (P05771 whole entry): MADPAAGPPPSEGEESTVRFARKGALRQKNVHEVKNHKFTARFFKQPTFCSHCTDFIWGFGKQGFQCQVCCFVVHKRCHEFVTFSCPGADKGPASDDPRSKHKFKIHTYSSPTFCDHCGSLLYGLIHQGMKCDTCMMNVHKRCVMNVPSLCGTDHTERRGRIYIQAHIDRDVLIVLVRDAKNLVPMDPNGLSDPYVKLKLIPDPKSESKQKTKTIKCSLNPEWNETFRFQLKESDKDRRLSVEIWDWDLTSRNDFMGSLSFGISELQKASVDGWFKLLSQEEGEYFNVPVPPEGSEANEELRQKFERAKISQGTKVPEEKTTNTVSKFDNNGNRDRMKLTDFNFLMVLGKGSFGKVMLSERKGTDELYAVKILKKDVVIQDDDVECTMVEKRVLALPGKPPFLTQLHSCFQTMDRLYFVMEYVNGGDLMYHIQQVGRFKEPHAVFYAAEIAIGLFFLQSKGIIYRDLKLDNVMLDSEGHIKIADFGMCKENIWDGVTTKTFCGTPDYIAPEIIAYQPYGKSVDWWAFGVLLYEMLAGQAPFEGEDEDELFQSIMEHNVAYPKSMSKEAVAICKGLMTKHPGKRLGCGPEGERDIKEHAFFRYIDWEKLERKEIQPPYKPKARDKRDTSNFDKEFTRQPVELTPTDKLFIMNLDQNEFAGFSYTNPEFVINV
Sequence of PKC-βII (P05771 1-673 isoform P05771-2): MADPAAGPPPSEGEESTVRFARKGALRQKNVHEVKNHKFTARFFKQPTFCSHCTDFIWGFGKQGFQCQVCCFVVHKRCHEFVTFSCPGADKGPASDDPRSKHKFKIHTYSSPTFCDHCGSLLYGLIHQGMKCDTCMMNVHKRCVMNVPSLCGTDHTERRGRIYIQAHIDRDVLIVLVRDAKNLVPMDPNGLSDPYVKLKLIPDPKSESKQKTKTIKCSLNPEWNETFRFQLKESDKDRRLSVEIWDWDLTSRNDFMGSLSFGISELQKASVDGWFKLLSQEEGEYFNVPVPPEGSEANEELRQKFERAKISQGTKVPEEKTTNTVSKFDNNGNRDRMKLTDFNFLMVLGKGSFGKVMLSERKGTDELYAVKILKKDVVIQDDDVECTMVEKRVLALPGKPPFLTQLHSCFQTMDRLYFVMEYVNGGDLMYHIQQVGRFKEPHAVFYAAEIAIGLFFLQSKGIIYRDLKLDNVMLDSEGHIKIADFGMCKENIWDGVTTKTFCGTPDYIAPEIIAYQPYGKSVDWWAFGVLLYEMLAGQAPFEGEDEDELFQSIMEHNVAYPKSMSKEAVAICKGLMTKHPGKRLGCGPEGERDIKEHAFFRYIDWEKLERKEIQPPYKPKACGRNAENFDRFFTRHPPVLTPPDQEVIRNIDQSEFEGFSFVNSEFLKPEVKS

## Ac-KDAQNLIGISI-NH2 [PRE 4, Ac-KDAQNLIGISI-NH2]
PKC-βI
  effect on antibody binding to PKC-βI: some cross-reactivity
PKC-βI; 100 μg, PKC-βI, Table 9
  inhibition at 0.1 mg: 34%
PKC-βI; 100 μg, PKC-βI, Table 9, read-out: Relative Intensity (%)
  remaining activity at 0.1 mg: 66%
PKC-βI; 100 μg, PKC-βI
  Band Intensity: 112.5
PKC-βI; 200 μg, PKC-βI, Table 9
  inhibition at 0.2 mg: 100%
PKC-βI; 200 μg, PKC-βI, Table 9, read-out: Relative Intensity (%)
  remaining activity at 0.2 mg: 0%
PKC-βI; 200 μg, PKC-βI
  Band Intensity: 0.0
PKC-βI; 300 μg, PKC-βI, Table 9
  inhibition at 0.3 mg: 100%
PKC-βI; 300 μg, PKC-βI, Table 9, read-out: Relative Intensity (%)
  remaining activity at 0.3 mg: 0%
PKC-βI; 300 μg, PKC-βI
  Band Intensity: 0.0
PKC-βII
  effect on antibody binding to PKC-βII: some cross-reactivity
PKC-βII; 100 μg, PKC-βII, Table 9
  inhibition at 0.1 mg: 29%
PKC-βII; 100 μg, PKC-βII, Table 9, read-out: Relative Intensity (%)
  remaining activity at 0.1 mg: 69.5%
PKC-βII; 100 μg, PKC-βII
  Band Intensity: 69.58
PKC-βII; 200 μg, PKC-βII, Table 9
  inhibition at 0.2 mg: 100%
PKC-βII; 200 μg, PKC-βII, Table 9, read-out: Relative Intensity (%)
  remaining activity at 0.2 mg: 0%
PKC-βII; 200 μg, PKC-βII
  Band Intensity: 0.0
PKC-βII; 300 μg, PKC-βII, Table 9
  inhibition at 0.3 mg: 100%
PKC-βII; 300 μg, PKC-βII, Table 9, read-out: Relative Intensity (%)
  remaining activity at 0.3 mg: 0%
PKC-βII; 300 μg, PKC-βII
  Band Intensity: 0.0
PKC-α [1]; 100 μg, Table 9
  inhibition at 0.1 mg: 89.4%
PKC-α [1]; 100 μg, Table 9, read-out: Relative Intensity (%)
  remaining activity at 0.1 mg: 10.6%
PKC-α [1]; 100 μg
  Band Intensity: 32.2
PKC-α [1]; 200 μg, Table 9
  inhibition at 0.2 mg: 99.5%
PKC-α [1]; 200 μg, Table 9, read-out: Relative Intensity (%)
  remaining activity at 0.2 mg: 0.5%
PKC-α [1]; 200 μg
  Band Intensity: 1.5
PKC-α [1]; 300 μg, Table 9
  inhibition at 0.3 mg: 100%
PKC-α [1]; 300 μg, Table 9, read-out: Relative Intensity (%)
  remaining activity at 0.3 mg: 0%
PKC-α [1]; 300 μg
  Band Intensity: 0.0

## RRKKGGKDFVVKR [PRE 1]
PKC-β
  effect on antibody binding to PKC-β: some cross reactivity
PKC-β; 75 μg
  Band Intensity: 0.825
  Inhibition (%): 28.9%
  Relative Intensity (%): 71.1%
PKC-β; 300 μg
  Band Intensity: 0.528
  Inhibition (%): 54.5%
  Relative Intensity (%): 45.5%
PKC-α [2]; 75 μg peptide
  Band Intensity: 1.040
  Inhibition (%): 50.2%
  Relative Intensity (%): 49.8%
PKC-α [2]; 300 μg peptide
  Band Intensity: 0.771
  Inhibition (%): 63.1%
  Relative Intensity (%): 36.9%
PKC-α [2]
  effect on antibody binding to PKC-α: mask the antigenic site of PKC-α

From patent US20100041597A1, “PEPTIDES TARGETED TO PROTEIN KINASE C ISOFORMS AND USES THEREOF” (priority 2005, published 2010)
